Results reported in PMC9586938, “Picomolar fluorescent probes for compound affinity determination to carbonic anhydrase IX expressed in live cancer cells” (Scientific Reports, 2022).

What was measured:
[1] = system: HeLa CAIX-KO and normoxia-grown WT HeLa cells; assay: Fluorescein-labeled compound dosing to CAIX-KO and normoxia-grown HeLa cells (non-specific binding); assay type: cell-based, human; conditions: micromolar concentration range, Fig. 9B, 9C
Method: (§1) HeLa cell culture was grown in 12-well plates, either under hypoxia (1% O2) or under normoxia (21% O2), for 70 to 76 h. The medium was removed. Then 200 µL of serially diluted compound (twelve twofold steps) in the FB medium, usually starting at 80 nM (80, 40, 20, …, 0 nM), was added and incubated at 37 ℃ under normoxia in the CO2 incubator for 20 min (2 or 5 min in some experiments where specified). Then the compound solution was removed and the cells were washed 3 times for 1.5–2 min with 400 µL of PBS at RT. Then 180 µL of TrypLe express enzyme (ThermoFisher) was added to each well and incubated in CO2 incubator for 5 min to 10 min until the cells deattached from the surface. After addition of 20 µL of Defined Trypsin Inhibitor solution (ThermoFisher), cells were resuspended by pipetting and 150 µL of the suspension from each well were transferred to black Thermo Scientific™ Nunc MicroWell 96-Well Optical-Bottom Plates for fluorescence and absorbance measurements. The fluorescence was recorded at 485 nm excitation and 520 nm emission wavelengths in the plate reader (Synergy HTX, BioTek). The absorbance was recorded at 650 nm to measure the optical density of the cell suspension.
(§2) The compound solution was prepared by weighing 3–5 mg of a purified compound and dissolving in DMSO at 10 mM concentration. The 1 mM compound stock in DMSO was prepared by taking 10 µL of 10 mM stock and adding to 90 µL DMSO. The 10 µM compound stock was prepared by taking 10 µL of 1 mM compound stock in DMSO and adding 990 µL of the FB medium (this stock contained 1% of DMSO). Then 80 nM compound solution was prepared by taking 10 µL of 10 µM solution and adding 1.24 mL of the FB medium and placed to the first Eppendorf tube. Then 300 µL of FB medium were added to the Eppendorf tubes 2 to 12. A serial dilution was performed by taking 300 µL of solution from tube 1 to 2, then from 2 to 3 and so on while mixing vigorously at each step. No solution was transferred to the last tube thus it contained only FB medium and no compound. Then 200 µL from 12 tubes were transferred to the 12 wells of cell culture-containing 12-well plate, starting from the lowest concentration.
This equation was fit to the dosing curves of several fluorescently-labeled ligands to both the cells grown in hypoxia and in normoxia, both to the WT and CRISPR-Cas9 CAIX knockout cells. The cells bound both the GZ19-32 and GZ20-40 ligands that differed only in the length of the linker and both contained the same head-group. […] Furthermore, the ligands that had their sulfonamide amino group substituted with the methyl completely abandoned their capability of binding CAIX in this concentration region. The binding was also abolished for the CAIX-KO HeLa cells.

CAVII = target: T1, CAVII (Homo sapiens, UniProt P43166); assay: Thermal shift assay (TSA), recombinant CAVII; assay type: binding; conditions: 37 °C, pH 7.0, observed (not intrinsic)
T1 construct: made in house; host or cells: E. coli

CAXII = target: T2, CAXII (Homo sapiens, UniProt O43570); assay: Thermal shift assay (TSA), recombinant CAXII; assay type: binding; conditions: 37 °C, pH 7.0, observed (not intrinsic)
T2 construct: Isozymes CAIX, CAXII, and CAXIV were the catalytic domains of the proteins; made in house; host or cells: E. coli
Method: (§3) The binding affinities of all fluorescein-containing compounds were determined for all 12 catalytically active CA isozymes by the thermal shift assay (TSA). […] However, the SFA technique cannot determine the affinities lower than the enzyme concentration used in the assay. […] In addition, we used isothermal titration calorimetry (ITC), the standard assay to determine affinity and enthalpy of protein–ligand binding. […] Therefore, ITC was used only to determine the enthalpy of interaction and confirm the ordering of compound affinities.
(§4) All twelve catalytically active human CA isozymes were prepared recombinantly as previously described. Isozymes CAIX, CAXII, and CAXIV were the catalytic domains of the proteins[14],[38]. All isozymes were expressed in E. coli except CAIX that has been prepared in mammalian cells. The proteins were chromatographically purified on ion-exchange or benzene sulfonamide containing affinity columns. Protein MW was confirmed by mass spectrometry with 1 Da precision as predicted from gene sequence.
(§5) Compound affinities for the twelve catalytically active CA isozymes were determined by the thermal shift assay as previously described[30],[39]. Protein solutions containing 1,8-anilinonaphthalenesulfonate fluorescent probe were heated from 25 to 100 °C at a rate of one degree per minute while following the fluorescence of the probe. The temperature scanning curves provided the melting temperature Tm of the protein. The Tm has a distinct dependence on the concentration of a compound. Stronger binders shift the Tm to a greater extent than the weak binders. The Tm dependencies on compound concentration were fit to obtain the affinity Kd[40].

[2] = target: T3, catalytic domain of recombinant human CAIX (Homo sapiens, UniProt Q16790); assay: Thermal shift assay (TSA), recombinant CAIX catalytic domain; assay type: binding; conditions: for Kd: TSA, 37 °C, pH 7.0, observed (not intrinsic), read-out: Kd CAIX
T3 construct: Isozymes CAIX, CAXII, and CAXIV were the catalytic domains of the proteins; made in house; host or cells: mammalian cells

CAVB = target: T4, CAVB (Homo sapiens, UniProt Q9Y2D0); assay: Thermal shift assay (TSA), recombinant CAVB; assay type: binding; conditions: 37 °C, pH 7.0, observed (not intrinsic)
T4 construct: made in house; host or cells: E. coli

CAXIII = target: T5, CAXIII (Homo sapiens, UniProt Q8N1Q1); assay: Thermal shift assay (TSA), recombinant CAXIII; assay type: binding; conditions: 37 °C, pH 7.0, observed (not intrinsic)
T5 construct: made in house; host or cells: E. coli

CAII = target: T6, CAII (Homo sapiens, UniProt P00918); assay: Thermal shift assay (TSA), recombinant CAII; assay type: binding; conditions: 37 °C, pH 7.0, observed (not intrinsic)
T6 construct: made in house; host or cells: E. coli
Method: as §3, §4, §5

CAVI = target: T7, CAVI (Homo sapiens, UniProt P23280); assay: Thermal shift assay (TSA), recombinant CAVI; assay type: binding; conditions: 37 °C, pH 7.0, observed (not intrinsic)
T7 construct: made in house; host or cells: E. coli
Method: as §3, §4, §5

[3] = target: T8, CAIX expressed on HeLa cells (Homo sapiens, UniProt Q16790); assay: Fluorescein-labeled compound dosing to hypoxia-grown WT HeLa cells (Morrison single-site model); assay type: cell-based; conditions: same conditions as GZ19-32, up to about 100 nM
T8 construct: recombinant CAIX and endogenous CAIX expressed on the cell surface; endogenous in cells; host or cells: HeLa (WT), grown under hypoxia (1% O2)
Method: as §1, §2
Application of fluorescently labeled ligand GZ19-32 to cancer cells expressing CAIX will stain the cells in dose-dependent manner. The fraction of saturation increases from 0 to 1. The fraction of bound GZ19-32 (f) is equal to the molar concentration of bound GZ19-32 per molar concentration of total available CAIX, the so-called total protein Pt . f=GZ19-32bound/Pt
Upon GZ19-32 dosing, the observed fluorescence signal F can be modeled to change from the minimal background signal ( Fmin ) to maximal saturated value ( Fmax ): F=Fmin+Fmax-Fminf […]

CAI = target: T9, CAI (Homo sapiens, UniProt P00915); assay: Thermal shift assay (TSA), recombinant CAI; assay type: binding; conditions: 37 °C, pH 7.0, observed (not intrinsic)
T9 construct: made in house; host or cells: E. coli

CAIV = target: T10, CAIV (Homo sapiens, UniProt P22748); assay: Thermal shift assay (TSA), recombinant CAIV; assay type: binding; conditions: 37 °C, pH 7.0, observed (not intrinsic)
T10 construct: made in house; host or cells: E. coli

CAIII = target: T11, CAIII (Homo sapiens, UniProt P07451); assay: Thermal shift assay (TSA), recombinant CAIII; assay type: binding; conditions: 37 °C, pH 7.0, observed (not intrinsic)
T11 construct: made in house; host or cells: E. coli
Method: as §3, §4, §5

CAVA = target: T12, CAVA (Homo sapiens, UniProt P35218); assay: Thermal shift assay (TSA), recombinant CAVA; assay type: binding; conditions: 37 °C, pH 7.0, observed (not intrinsic)
T12 construct: made in house; host or cells: E. coli
Method: as §3, §4, §5

CAXIV = target: T13, CAXIV (Homo sapiens, UniProt Q9ULX7); assay: Thermal shift assay (TSA), recombinant CAXIV; assay type: binding; conditions: 37 °C, pH 7.0, observed (not intrinsic)
T13 construct: Isozymes CAIX, CAXII, and CAXIV were the catalytic domains of the proteins; made in house; host or cells: E. coli

[4] = target: CAIX expressed on live A549 cells (Homo sapiens, UniProt Q16790); assay: Competition of unlabeled compound with 10 nM GZ19-32 on hypoxic A549 cells (competitive binding model); conditions: ratio of KdA

T4 sequence (Q9Y2D0 34-317): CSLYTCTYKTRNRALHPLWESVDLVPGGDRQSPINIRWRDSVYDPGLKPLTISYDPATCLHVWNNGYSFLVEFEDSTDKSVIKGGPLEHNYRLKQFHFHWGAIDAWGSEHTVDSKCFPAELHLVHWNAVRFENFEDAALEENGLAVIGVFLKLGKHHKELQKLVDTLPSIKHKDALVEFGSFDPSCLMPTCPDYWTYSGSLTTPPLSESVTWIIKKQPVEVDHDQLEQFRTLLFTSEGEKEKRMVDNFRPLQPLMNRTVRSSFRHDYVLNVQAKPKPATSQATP
T12 sequence (P35218 39-305): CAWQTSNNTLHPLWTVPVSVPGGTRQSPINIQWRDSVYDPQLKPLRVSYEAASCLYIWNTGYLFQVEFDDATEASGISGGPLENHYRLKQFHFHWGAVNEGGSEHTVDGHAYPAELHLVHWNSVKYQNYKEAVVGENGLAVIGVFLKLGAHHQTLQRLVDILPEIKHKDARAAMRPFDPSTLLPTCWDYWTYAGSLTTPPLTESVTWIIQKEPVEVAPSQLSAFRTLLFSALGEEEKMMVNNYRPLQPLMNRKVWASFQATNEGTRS
T11 sequence (P07451 whole entry): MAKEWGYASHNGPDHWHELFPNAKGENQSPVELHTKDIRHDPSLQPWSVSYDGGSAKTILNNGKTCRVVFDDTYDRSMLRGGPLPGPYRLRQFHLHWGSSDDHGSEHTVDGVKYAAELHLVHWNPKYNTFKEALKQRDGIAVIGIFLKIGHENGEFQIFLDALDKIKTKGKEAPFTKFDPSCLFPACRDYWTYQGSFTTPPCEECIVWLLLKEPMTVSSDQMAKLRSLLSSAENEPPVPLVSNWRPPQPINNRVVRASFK
T13 sequence (Q9ULX7 20-278 limits assumed): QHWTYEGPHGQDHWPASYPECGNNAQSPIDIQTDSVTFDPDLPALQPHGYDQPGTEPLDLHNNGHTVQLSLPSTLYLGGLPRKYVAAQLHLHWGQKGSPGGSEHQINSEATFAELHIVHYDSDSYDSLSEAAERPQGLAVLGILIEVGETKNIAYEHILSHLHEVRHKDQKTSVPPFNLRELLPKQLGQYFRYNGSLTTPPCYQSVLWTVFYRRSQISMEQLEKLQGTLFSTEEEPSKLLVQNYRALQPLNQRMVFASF
T1 sequence (P43166 whole entry): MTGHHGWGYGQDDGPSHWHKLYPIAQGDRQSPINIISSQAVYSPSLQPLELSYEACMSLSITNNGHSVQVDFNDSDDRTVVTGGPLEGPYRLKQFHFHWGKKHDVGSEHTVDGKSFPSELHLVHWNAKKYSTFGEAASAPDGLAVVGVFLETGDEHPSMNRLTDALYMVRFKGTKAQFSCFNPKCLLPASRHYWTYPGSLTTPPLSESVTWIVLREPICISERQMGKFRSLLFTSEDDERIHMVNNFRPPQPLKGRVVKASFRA
T7 sequence (P23280 18-308): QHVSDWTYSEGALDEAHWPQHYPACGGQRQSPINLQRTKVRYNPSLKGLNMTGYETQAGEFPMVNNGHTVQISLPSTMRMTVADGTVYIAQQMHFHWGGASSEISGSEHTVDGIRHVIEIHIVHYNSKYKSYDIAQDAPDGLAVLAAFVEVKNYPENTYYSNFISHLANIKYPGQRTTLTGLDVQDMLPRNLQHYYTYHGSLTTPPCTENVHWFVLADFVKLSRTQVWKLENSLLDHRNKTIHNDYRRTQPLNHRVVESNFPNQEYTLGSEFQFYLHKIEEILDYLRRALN
T5 sequence (Q8N1Q1 whole entry): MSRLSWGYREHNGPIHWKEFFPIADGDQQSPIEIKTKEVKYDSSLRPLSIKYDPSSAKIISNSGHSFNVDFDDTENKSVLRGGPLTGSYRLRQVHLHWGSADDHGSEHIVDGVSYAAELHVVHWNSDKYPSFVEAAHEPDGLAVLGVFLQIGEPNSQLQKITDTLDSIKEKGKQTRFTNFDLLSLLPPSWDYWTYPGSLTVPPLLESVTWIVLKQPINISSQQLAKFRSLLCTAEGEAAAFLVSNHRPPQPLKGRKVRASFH
T2 sequence (O43570 30-289 limits assumed): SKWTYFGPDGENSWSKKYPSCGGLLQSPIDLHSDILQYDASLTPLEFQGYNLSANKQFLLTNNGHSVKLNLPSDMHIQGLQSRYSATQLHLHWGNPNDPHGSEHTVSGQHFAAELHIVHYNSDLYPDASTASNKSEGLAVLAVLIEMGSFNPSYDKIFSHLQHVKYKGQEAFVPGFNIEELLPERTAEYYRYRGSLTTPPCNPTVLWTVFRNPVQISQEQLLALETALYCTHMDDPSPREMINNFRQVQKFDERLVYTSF
T9 sequence (P00915 whole entry): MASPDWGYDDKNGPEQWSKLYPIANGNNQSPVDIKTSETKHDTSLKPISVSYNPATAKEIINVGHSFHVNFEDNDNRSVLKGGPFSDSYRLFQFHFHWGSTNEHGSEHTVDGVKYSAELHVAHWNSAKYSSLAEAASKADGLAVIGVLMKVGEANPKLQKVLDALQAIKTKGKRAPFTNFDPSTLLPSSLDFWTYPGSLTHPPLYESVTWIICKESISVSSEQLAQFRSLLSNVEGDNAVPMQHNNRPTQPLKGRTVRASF
T10 sequence (P22748 19-312): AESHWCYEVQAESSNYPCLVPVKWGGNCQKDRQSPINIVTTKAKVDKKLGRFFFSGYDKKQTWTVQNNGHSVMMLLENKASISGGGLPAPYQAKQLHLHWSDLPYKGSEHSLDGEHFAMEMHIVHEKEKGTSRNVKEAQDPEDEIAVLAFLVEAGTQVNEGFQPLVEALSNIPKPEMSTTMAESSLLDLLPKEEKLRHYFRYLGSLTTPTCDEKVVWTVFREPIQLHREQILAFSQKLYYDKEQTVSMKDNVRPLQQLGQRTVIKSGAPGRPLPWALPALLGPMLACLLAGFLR

| SMILES | melting point [°C] | non-specific binding to cells [1] | Kd (CAVII) [nM] | Kd (CAXII) [nM] | Kd [2] [nM] | binding to CAIX by TSA (in words) ([2]; recombinant CAIX) | Kd (CAVB) [nM] | Kd (CAXIII) [nM] | Kd (CAII) [nM] | Kd (CAVI) [nM] | binding to hypoxia-grown HeLa cells in the nM concentration region [3] | Kd (CAI) [nM] | Kd (CAIV) [nM] | Kd (CAIII) [nM] | Kd (CAVA) [nM] | Kd (CAXIV) [nM] | weaker binding to CAIX in A549 than HeLa cells [4] [times] |
| --- | --- | --- | --- | --- | --- | --- | --- | --- | --- | --- | --- | --- | --- | --- | --- | --- | --- |
| NS(=O)(=O)c1c(F)c(F)c(S(=O)(=O)CCC(=O)Nc2ccc3c(c2)C(=O)OC32c3ccc(O)cc3Oc3cc(O)ccc32)c(F)c1F [GZ19-31, N-(3',6'-dihydroxy-3-oxo-3H-spiro[isobenzofuran-1,9'-xanthen]-5-yl)-3-((2,3,5,6-tetrafluoro-4-sulfamoylphenyl)sulfonyl)propanamide] | 175 to 176 | bound cells in the micromolar concentration range | 2 | 40 | 1.7 | medium affinity (nM range) | 20 | 1.7 | 1.7 | 140 | did not bind | 0.005 | 140 | 2500 | 29 | 25 |  |
| CS(=O)(=O)c1c(F)c(F)c(SCCC(=O)Nc2ccc3c(c2)C(=O)OC32c3ccc(O)cc3Oc3cc(O)ccc32)c(F)c1F [GZ19-33, N-(3',6'-dihydroxy-3-oxo-3H-spiro[isobenzofuran-1,9'-xanthen]-5-yl)-3-((2,3,5,6-tetrafluoro-4-(methylsulfonyl)phenyl)thio)propanamide] | 181 to 182 | bound cells in the micromolar concentration range | > 100000 | > 100000 | > 100000 |  | > 100000 | > 100000 | > 100000 | > 100000 |  | > 100000 | > 100000 | > 100000 | > 100000 | > 100000 |  |
| NS(=O)(=O)c1c(F)c(F)c(S(=O)(=O)CCC(=O)NCCCC(=O)Nc2ccc3c(c2)C(=O)OC32c3ccc(O)cc3Oc3cc(O)ccc32)c(NC2CCCCCCC2)c1F [GZ20-40, 4-(3-((2-(cyclooctylamino)-3,5,6-trifluoro-4-sulfamoylphenyl)sulfonyl)propanamido)-N-(3',6'-dihydroxy-3-oxo-3H-spiro[isobenzofuran-1,9'-xanthen]-5-yl)butanamide] | 180 to 181 |  | 7 | 7 | 0.01 |  | 33 | 1 | 200 | 250 |  | 500 | 500 | 6700 | 1000 | 2.5 |  |
| NS(=O)(=O)c1ccc(NC(=O)Nc2ccc(F)cc2)cc1 [SLC-0111, 4-(3-(4-fluorophenyl)ureido)benzenesulfonamide, reference compound] |  |  |  |  |  |  |  |  |  | 10000 |  |  |  | > 200000 | 6000 |  | 6 |
